Tests used:
Type in all cases: functional
Bacillus subtilis = assay: Ability to inhibit growth of Bacillus subtilis MTCC 121 was determined
Enterococcus faecalis = assay: Ability to inhibit growth of Enterococcus faecalis MTCC 439 was determined
Klebsiella pneumoniae = assay: Ability to inhibit growth of Klebsiella pneumoniae MTCC 109 was determined
Staphylococcus aureus = assay: Ability to inhibit growth of Staphylococcus aureus MTCC1430 was determined
Pseudomonas aeruginosa = assay: Ability to inhibit growth of Pseudomonas aeruginosa MTCC 1034 was determined
Escherichia coli = assay: Ability to inhibit growth of Escherichia coli MTCC 42 was determined
Proteus vulgaris = assay: Ability to inhibit growth of Proteus vulgaris MTCC744 was determined
Bacillus cereus = assay: Ability to inhibit growth of Bacillus cereus MTCC 1272 was determined
Shigella sonnei = assay: Ability to inhibit growth of Shigella sonnei MTCC 2957 was determined

Structure (SMILES) | Growth Inhibition (Bacillus subtilis) [mm] | Growth Inhibition (Enterococcus faecalis) [mm] | Growth Inhibition (Klebsiella pneumoniae) [mm] | Growth Inhibition (Staphylococcus aureus) [mm] | Growth Inhibition (Pseudomonas aeruginosa) [mm] | Growth Inhibition (Escherichia coli) [mm] | Growth Inhibition (Proteus vulgaris) [mm] | Growth Inhibition (Bacillus cereus) [mm] | Growth Inhibition (Shigella sonnei) [mm]
O=C(O)c1cn(C2CC2)c2cc(N3CCNCC3)c(F)cc2c1=O [CIPROFLOXACIN] | 22 | 16 | 18 | 21 | 18 | 22 | 19 | 17 | 21
COc1ccc(-c2nc(-c3ccccc3)nc3ccc(C)cc23)cc1 | 12 | 12 | 17 | 0 | 16 | 16 | 15 | 13 | 15
Cc1ccc2nc(N3CCOCC3)nc(-c3ccccc3)c2c1 | 16 | 16 | 19 | 12 | 19 | 21 | 18 | 15 | 20
Cc1ccc2nc(N3CCOCC3)nc(-c3ccc(N(C)C)cc3)c2c1 | 18 | 17 | 20 | 22 | 16 | 20 | 18 | 19 | 19
COc1ccc(-c2nc(N3CCCCC3)nc3ccc(C)cc23)cc1 | 21 | 16 | 20 | 19 | 15 | 19 | 18 | 16 | 21
Cc1ccc2nc(-c3ccccc3)nc(-c3ccc(N(C)C)cc3)c2c1 | 15 | 12 | 19 | 11 | 18 | 18 | 17 | 14 | 16

— ChEMBL document CHEMBL1137910, “Synthesis and biological activity of novel antibacterial quinazolines” (2004)
